In patent US20250009817A1, “IMMUNOMODULATING COMPOSITION CONTAINING GASSERI” (THE CATHOLIC UNIVERSITY OF KOREA INDUSTRY-ACADEMIC …, priority 2023, published 2025):

Experiments:
CD4+T cells = assay: Alloresponse (T cell proliferation) in allogeneic cell model, 3H thymidine incorporation; format: cell-based, mouse; details: allogeneic co-culture; FK506 0.3 mg/ml; microbiome 100 μg/ml in combination; FIG. 1
Procedure: To confirm an effect of the combination of FK506 and a microbiome of the present invention on transplantation rejection, an allogeneic cell model was used. Specifically, in a 96 well plate, 2×10^5 CD4+T cells from a normal responder (Bclb/c) per well were mixed and co-cultured with 2×10^5 splenocytes from which T cells derived from an irradiated responder (syngenic) or donor (C57BL/6, stimulator, allogeneic) were removed. During co-culture, an allogeneic model was treated with five types of Lactobacillus bacteria, Lactobacillus acidophilus (LA), L. reuteri (LRe), L. rhamnosus (LRh), L. paracasei (LPC) or L. casei (LC) alone at 1, 10, and 100 μg/ml, or administered in combination with 0.3 mg/ml of FK506. As a control group, a syngenic transplantation group (Syn group) and an allogeneic transplantation group (Allo group) were used. Thereafter, in order to confirm alloresponses in mice of each group, T cell proliferation responses (alloresponses) were confirmed in the cultured cells using a 3H thymidine incorporation method.

[1] = test system: acute graft-versus-host disease (aGVHD); assay: Disease activity, body weight and probability of survival in acute graft-versus-host disease animal model; format: in vivo, mouse; details: aGVHD mice, FK506 5 mg/kg, microbiome 400 mg/kg, oral once daily 4 weeks
Procedure: Specifically, in order to fabricate an aGVHD model, a responder mouse Balb/c (H-2k/d) was subjected to total body irradiation (TBI) of 690 cGy, bone marrow stem cells and splenocytes were isolated from the femur and tibia of a donor mouse C57BL/6 (H-2k/b), and then 5×10^6 bone marrow (BM) stem cells and 5×10^6 splenocytes were transplanted into the responder mouse Balb/c (H-2k/d). Thereafter, after the occurrence of aGVHD, 5 mg/kg of FK506 and 400 mg/kg each of Lactobacillus rhamnosus (LR) or Lactobacillus paracasei (LP) were administered orally once daily for 4 weeks. Disease activity, body weight, and probability of survival of mice in each group were measured once a week to confirm whether the disease activity was suppressed (FIG. 5). As control groups, a syngenic (syn) group transplanted with syngenic cells; a vehicle group, in which aGVHD was induced and saline was injected; and groups administered with FK506, Lactobacillus rhamnosus, and Lactobacillus paracasei alone were used.

IL-17 and IL-10 = IL-17 and IL-10 in culture medium under allo response conditions, ELISA; format: cell-based, human; details: hPBMCs, 72 hours, FK506 1 nM, microbiomes 10 μg/ml each, vs Vehicle group
Procedure: Specifically, the proliferation of allo response T cells was confirmed for FK506 alone (1 nM) and a combination of FK506 (1 nM) and L. gasseri (10 μg/ml); L. gasseri (10 μg/ml) and L. acidophilus (10 μg/ml); two microbiomes (each 10 μg/ml) and zinc (50 μM); or two microbiomes (each 10 μg/ml), zinc (50 μM), vitamin B9, and vitamin B12 (B9+B12 20 μM). Specifically, different human peripheral blood mononuclear cells (hPBMCs) were inoculated at a ratio of 1:1 (each concentration of 1×10^5 cells) on a 96 well plate coated with a concentration of anti CD3 0.5 μg/ml, treated with the combination in hPBMCs in which allo conditions were induced, and then cultured for 72 hours. Thereafter, 10 μl of CCK8 was treated to each well and reacted for 4 hours, and then the cell proliferation response was measured by absorbance at 450 nm. As a control group, a Vehicle group in which the active ingredient was replaced with a solvent was used.
It was confirmed whether the combination of FK506 and the microbiome of the present invention regulated the expression of inflammation-related factors under allo response conditions. Specifically, a culture medium of each cell cultured in Example 7-1 was obtained, and the amounts of IL-17 as an inflammatory factor and IL-10 as an inflammation regulator in the culture medium were analyzed by ELISA.

IL-17, IL-10, and IFN-γ = assay: IL-17, IL-10 and IFN-γ in hPBMC under T cell stimulation conditions (anti-CD3), ELISA; format: cell-based, human; details: anti-CD3 2 μg/ml, 24 hours, FK506 1 nM, microbiomes 10 μg/ml each
Procedure: (§1) It was confirmed whether the combination of FK506 and the microbiomes of the present inention regulated IL-17 and IL-10 in human peripheral blood mononuclear cells (hPBMCs) under T cell stimulation conditions. Specifically, PBMCs isolated from human peripheral blood were treated with anti-CD3 at a concentration of 2 μg/ml to activate T cells. Thereafter, the PBMCs were treated with FK506 alone (1 nM) and a combination of FK506 (1 nM) and L. gasseri (10 μg/ml); L. gasseri (10 μg/ml) and L. acidophilus (10 μg/ml); two microbiomes (each 10 μg/ml) and zinc (50 μM); or two microbiomes (each 10 μg/ml), zinc (50 μM), vitamin B9, and vitamin B12 (B9+B12 20 μM) and cultured for 24 hours. After completion of the culture, the cell culture medium was obtained, and the amounts of IL-17 and IL-10 in the culture medium were measured by ELISA.

Treg = Treg expression in hPBMC under T cell stimulation conditions, flow cytometry; format: cell-based, human; details: anti-CD3 2 μg/ml, 24 hours, FK506 1 nM, microbiomes 10 μg/ml each, zinc 50 μM, B9+B12 20 μM
Procedure: as §1
It was confirmed whether the combination of FK506 and the microbiomes of the present invention regulated the expression of Treg reduced by treatment with the immunosuppressant. Specifically, cells in each group of Example 8-1 were obtained, and expression of Treg was confirmed by flow cytometry.

[2] = test system: Breg and B10 cells, and CD19-positive and IL-10-positive cells; assay: Breg, B10 and CD19-positive IL-10-positive cells in LPS-stimulated hPBMC, flow cytometry; format: cell-based, human; details: LPS 100 ng/ml, 24 hours
Procedure: The immune cell regulatory effect of the combination of FK506 and the microbiomes of the present invention in hPBMC according to LPS was confirmed. Specifically, PBMCs isolated from human peripheral […] were treated with LPS at a concentration of 100 ng/ml to activate immune cells. Thereafter, FK506 alone; or a combination of FK506 and L. gasseri; L. gasseri and L. acidophilus; microbiomes and zinc; or microbiomes, zinc, vitamin B9, and vitamin B12 was treated and cultured for 24 hours. After completion of culture, cells in each group were obtained, and the expression of immune B cells Breg and B10 cells, and CD19-positive and IL-10-positive cells was confirmed using flow cytometry.

`C=CC[C@@H]1/C=C(\C)C[C@H](C)C[C@H](OC)[C@H]2O[C@@](O)(C(=O)C(=O)N3CCCC[C@H]3C(=O)O[C@H](/C(C)=C/[C@@H]3CC[C@@H](O)[C@H](OC)C3)[C@H](C)[C@@H](O)CC1=O)[C@H](C)C[C@@H]2OC.O` [FK506, Tacrolimus] was tested, and the “T cell proliferation (alloresponse)” value (CD4+T cells) was “suppressed”, the probability of survival ([1]; at the end of the experiment) was 60% and the body weight ([1]; compared to the vehicle group) was “increased”. The disease activity ([1]; compared to the vehicle group) was “decreased”, the “expression of IL-10 in the culture medium” value (IL-17 and IL-10) was “significantly decreased” and the “amount of IFN-γ” value (IL-17, IL-10, and IFN-γ; vs Vehicle group) was “significantly decreased”. The “amount of IL-10” value (IL-17, IL-10, and IFN-γ; zinc 50 μM, B9+B12 20 μM) was “not expressed”, the “expression of Treg” value (Treg) was “significantly decreased” and the “expression of B10” value [2] was “decreased”. For the same compound, the “expression of Breg” value ([2]; vs Vehicle group) was “significantly decreased”.
